Measured values from patent US8420592B2, “Methods of treatment using single doses of oritavancin” (The Medicines Company, priority 2008, dated 2013).

Legend:
[1] = system: MSSA (S. aureus ATCC13709 and clinical MSSA strains); test: Neutropenic-mouse thigh infection model; assay type: in vivo, Staphylococcus aureus; settings: for Log kill / Mean Log CFU/thigh from baseline: 72 h; for Log kill: S. aureus ATCC13709; for Mean Log CFU/thigh from baseline: MSSA (3 strains)
Procedure: (§1) Methods: Thigh infection was established for 14 clinical SA isolates (3 MSSA and 11 MRSA; MICs 0.0015 to 2 μg/mL) in neutropenic CD-1 mice (n=3/group) with 5×10^5 colony forming units (CFU) of cells. Single intravenous doses of ORI (0.5 to 40 mg/kg) were tested against one MSSA and one MRSA strain. […] Both thighs were harvested and CFU counts were evaluated after 24 h (single doses) or 72 h (HEQ doses) treatment.
(§2) In vivo studies: All studies were performed in accordance with protocols that were approved by the Institutional Animal Care and Use Committee. Thigh infection was established for 14 clinical S. aureus isolates in neutropenic CD-1 mice (19-21 g, n=3/group) with 5×10^5 colony forming units (CFU) of cells in both thighs. In the single dose-response study, the number of bacteria/thigh was monitored 24 h post-infection (PI). In the human equivalent (HEQ) dose-ranging study, the bacterial titer was determined in mouse thighs at 2, 4, 8, 12, 24, 48 and 72 h PI. Thighs were serially diluted and plated on Baird-Parker agar plates to determine the bacterial titer. The limit of detection was 1.69 Log10 CFU/thigh. Bacterial titer decreases were calculated (compared to starting inoculum) in thighs at 72 h PI for each HEQ dose regimen of ORI.
(§3) Antibiotherapy: 1) In the single dose response study, mice were treated intravenously (IV) with ORI at doses ranging from 0.4 to 40 mg/kg at lh PI. 2) In the HEQ dose-ranging study, starting at 1 h PI, the mice received a multiple IV dose regimen to simulate human drug concentration profile. […]
(§4) Data analysis: The inhibitiory sigmoid Emax model was used to calculate the ED50 of oritavancin (dose resulting in 50% of the maximal bacterial killing) ±95% confidence interval by using the GraphPad Prism software. The statistical calculations to compare bacterial titer from each experimental group were performed according to the Mann-Whitney U test by using StatsDirect software. p-values below 0.05 were considered significant.

[2] = system: MRSA (S. aureus NRS123 and clinical MRSA strains); test: Neutropenic-mouse thigh infection model; assay type: in vivo, Staphylococcus aureus; settings: for Mean Log CFU/thigh from baseline: 72 h
Procedure: as §1, §2, §3, §4

Streptococcus agalactiae = test: Phase 2 cSSSI study: cure rate by baseline pathogen; assay type: in vivo; settings: Streptococcus agalactiae at baseline
Procedure: (§5) The primary efficacy endpoint was the clinical response in the CE population at TOC, which occurred 20 to 28 days after study enrollment on Day 1. Clinical response was determined by the investigator as part of the end-of-therapy, TOC, and late follow-up procedures by assessing signs and symptoms including fever, pain, tenderness, erythema, induration, edema, purulent drainage, eschar, and devitalized tissue. A clinical response of cure, improvement, failure, or indeterminate was assigned at end-of-therapy and TOC by the investigator based on clinical signs and symptoms. At late follow-up, the investigator could assign the clinical response of relapse in addition to cure, improvement, or indeterminate. Only patients with a clinical response of cure or improvement at TOC were assessed for clinical response at late follow-up.
(§6) Cure was defined as resolution of purulent drainage, pain, edema, fever, erythema, tenderness, and induration. Serous drainage or aspirate and/or granulation tissue could be present. Improvement was defined as resolution of purulent drainage and, in the case of cellulitis, cessation of fever and pain. Residual erythema, edema, pain (in the case of wound or abscess), tenderness, and/or induration could be present as could serous drainage, granulation tissue, eschar, and/or devitalized tissue. Failure included any of the following: presence of purulent drainage (or aspirate) and/or fever; the unanticipated need for abscess drainage or removal of sutures (for treatment of infection)>48 hours after initiation of study therapy; or treatment with nonstudy systemic antibiotic having activity against gram-positive pathogen(s) for the primary infection site or use of topical antibiotics at the site of primary infection 24 hours or more after initiation of study medication therapy.
(§7) Blood and infection site cultures were obtained within three days of enrollment (often done at the time of enrollment). End-of-therapy, TOC, and late follow-up (or at early relapse) cultures were obtained from the infection site if clinically indicated. […] Specimens were cultured and pathogens were identified at each investigative site's certified laboratory. All isolated gram-positive pathogen(s) that were obtained from the infection site at baseline/randomization and up to and including the TOC time point were subcultured and sent to a central laboratory (Covance Clinical Laboratories, Indianapolis, Ind.) for confirmatory identification and susceptibility testing. In cases of discrepancy between the local and the central laboratory, central laboratory results were used.

Staphylococcus aureus = test: as above; assay type: in vivo; settings: S. aureus at baseline, TOC
Procedure: as §5, §6, §7

Streptococcus pyogenes = test: as above; assay type: in vivo; settings: Streptococcus pyogenes at baseline
Procedure: as §5, §6, §7

Enterococcus faecalis = test: as above; assay type: in vivo; settings: Enterococcus faecalis at baseline
Procedure: as §5, §6, §7

CN[C@H](CC(C)C)C(=O)N[C@H]1C(=O)N[C@@H](CC(N)=O)C(=O)N[C@H]2C(=O)N[C@H]3C(=O)N[C@H](C(=O)N[C@H](C(=O)O)c4cc(O)cc(O)c4-c4cc3ccc4O)[C@H](O[C@H]3C[C@](C)(N)[C@@H](O)[C@H](C)O3)c3ccc(c(Cl)c3)Oc3cc2cc(c3O[C@@H]2O[C@H](CO)[C@@H](O)[C@H](O)[C@H]2O[C@H]2C[C@](C)(NCc3ccc(-c4ccc(Cl)cc4)cc3)[C@@H](O)[C@H](C)O2)Oc2ccc(cc2Cl)[C@H]1O [Oritavancin, N-(4-(4-chlorophenyl)benzyl)A82846B]
Log kill ([1]; HEQ dose 200 mg): > 2 Log
Log kill ([1]; HEQ dose 400 mg): > 2 Log
Log kill ([1]; HEQ dose 1200 mg): > 2 Log
Mean Log CFU/thigh from baseline ([1]; HEQ dose 100 mg × 3 days): 1.5 Log CFU/thigh
Mean Log CFU/thigh from baseline ([1]; HEQ dose 200 mg × 3 days): −0.1 Log CFU/thigh
Mean Log CFU/thigh from baseline ([1]; HEQ dose 400 mg × 3 days): −1.6 Log CFU/thigh
Mean Log CFU/thigh from baseline ([1]; HEQ dose 1200 mg × 1 day): −2.7 Log CFU/thigh
ED50 ([1]; Staphylococcus aureus, single IV dose 1 h post-infection, 24 h readout, S. aureus ATCC13709 (MSSA), neutropenic CD-1 mice, 95% CI in brackets, read-out: ED50 (dose resulting in 50% of the maximal killing)): 5.8 mg/kg
ED50 (dose resulting in 50% of the maximal killing) ([1]; single IV dose 1 h post-infection, 24 h readout, S. aureus ATCC13709 (MSSA), neutropenic CD-1 mice, 95% CI in brackets): 5.8 (3.3-10) mg/kg
Mean Log CFU/thigh from baseline ([2]; MRSA (3 strains), HEQ dose 100 mg × 3 days): 0.8 Log CFU/thigh
Mean Log CFU/thigh from baseline ([2]; MRSA (3 strains), HEQ dose 400 mg × 3 days): −2.8 Log CFU/thigh
Mean Log CFU/thigh from baseline ([2]; MRSA (11 strains), HEQ dose 200 mg × 3 days): −0.9 Log CFU/thigh
Mean Log CFU/thigh from baseline ([2]; MRSA (11 strains), HEQ dose 1200 mg × 1 day): −2.8 Log CFU/thigh
ED50 ([2]; Staphylococcus aureus, single IV dose 1 h post-infection, 24 h readout, NRS123 (MRSA), neutropenic CD-1 mice, 95% CI in brackets, read-out: ED50 (dose resulting in 50% of the maximal killing)): 2.4 mg/kg
ED50 (dose resulting in 50% of the maximal killing) ([2]; single IV dose 1 h post-infection, 24 h readout, NRS123 (MRSA), neutropenic CD-1 mice, 95% CI in brackets): 2.4 (0.8-7.3) mg/kg
% of patients cured (cure and improvement) (Streptococcus agalactiae; 200 mg daily dose): 33.3%
% of patients cured (cure and improvement) (Streptococcus agalactiae; 800 mg infrequent dose): 100%
% of patients cured (cure and improvement) (Streptococcus agalactiae; 1200 mg single dose): 100%
% of patients cured (cure and improvement) (Staphylococcus aureus; 200 mg daily dose): 67.4%
% of patients cured (cure and improvement) (Staphylococcus aureus; 800 mg infrequent dose): 79.5%
% of patients cured (cure and improvement) (Staphylococcus aureus; 1200 mg single dose): 78.9%
% of patients cured (cure and improvement) (Streptococcus pyogenes; 200 mg daily dose): 66.7%
% of patients cured (cure and improvement) (Streptococcus pyogenes; 800 mg infrequent dose): 100%
% of patients cured (cure and improvement) (Streptococcus pyogenes; 1200 mg single dose): 100%
% of patients cured (cure and improvement) (Enterococcus faecalis; 200 mg daily dose): 50.0%
% of patients cured (cure and improvement) (Enterococcus faecalis; 800 mg infrequent dose): 100%
% of patients cured (cure and improvement) (Enterococcus faecalis; 1200 mg single dose): 100%
